According to article PMC8948292, “Combining PEGylated mito-atovaquone with MCT and Krebs cycle redox inhibitors as a potential strategy to abrogate tumor cell proliferation” (Scientific Reports, 2022):

How the values were obtained:
MiaPaCa-2 cells = experiment: Cell proliferation (cell confluence), IncuCyte Live-Cell Analysis System; type: cell-based, human; details: for Cell confluence (% of control): MiaPaCa-2 cells, control ~90% confluence
Method: The following cell lines were obtained from the American Type Culture Collection (Manassas, VA), where they were regularly authenticated: MiaPaCa-2 (ATCC Cat# CRL-1420, human pancreatic cancer cells), U87MG (ATCC Cat# HTB-14, human brain cancer cells), A549 (ATCC Cat# CCL-185, lung cancer cells), and HCT-116 (ATCC Cat# CCL-247, colon cancer cells). All cell lines were grown at 37 °C in 5% carbon dioxide. MiaPaCa-2 cells were maintained in Dulbecco's Modified Eagle Medium (Thermo Fisher Scientific, Waltham, MA; Cat# 11965) supplemented with 10% fetal bovine serum. U87MG, A549, and HCT-116 cells were maintained in RPMI 1640 medium (Thermo Fisher Scientific, Cat# 11875), supplemented with 10% fetal bovine serum. All cells were stored in liquid nitrogen and used within 20 passages after thawing.
The IncuCyte Live-Cell Analysis System was used to monitor cell proliferation[3],[33],[67]. As shown in previous publications[3],[67], this imaging system is probe-free and noninvasive, and enables continuous monitoring of cell confluence over several days. The increase in the percentage of cell confluence was used as a surrogate marker of cell proliferation. In a 96-well plate, cells were plated at 1,000 cells per well in triplicates and left to adhere overnight. Cells were then treated with Mito-PEG-ATO analogs, and the cell confluency was recorded over several days in the IncuCyte Live-Cell Analysis System.

[1] = tested on: mitochondrial respiration (OCR) in intact MiaPaCa-2 cells; experiment: Intact cell mitochondrial respiration (basal OCR), Seahorse XF-96; type: cell-based, human
Method: (§1) Mitochondrial oxygen consumption was measured using the Seahorse XF-96 Extracellular Flux Analyzer (Agilent, North Billerica, MA)[3],[33],[67],[68]. To determine the intact cell mitochondrial function of MiaPaCa-2 cells in response to Mito-PEG-ATO analogs, we used the bioenergetic function assay previously described[2],[3]. […] From these measurements, indices of mitochondrial function were determined as previously described[2],[3]. For mitochondrial complex activities assays, after cells were treated with Mito-PEG-ATO analogs for 24 h, the OCR-based assessment of mitochondrial complex activities was carried out on acutely permeabilized cells in the presence of different mitochondrial substrates, i.e., pyruvate/malate for complex I and duroquinol for complex III[3],[32],[34],[69]. Rotenone, malonate, and antimycin A (Sigma-Aldrich, St. Louis, MO) were used as specific inhibitors of mitochondrial complexes I, II, and III, respectively. Briefly, cells that were intact after treatments were immediately permeabilized using the Seahorse XF Plasma Membrane Permeabilizer (Agilent). The mitochondrial complex I-induced OCR was assayed in mannitol and sucrose buffer[69] containing 10 mM pyruvate and 1.5 mM malate (substrates for complex I) and 10 mM malonate (which inhibits complex II activities). The mitochondrial complex III-driven OCR was assayed in a mannitol and sucrose buffer containing 0.5 mM duroquinol (substrate for complex III) as well as 1 µM rotenone and 10 mM malonate (which inhibit both complex I and II activities). The IC50 values were determined as previously reported.

[2] = biological target: mitochondrial complex III (MiaPaCa-2 cells) (Homo sapiens, UniProt P00156); experiment: Complex III-dependent oxygen consumption in permeabilized cells, Seahorse XF-96; type: cell-based
Method: as §1

Sequence of mitochondrial complex III (MiaPaCa-2 cells) (P00156 whole entry): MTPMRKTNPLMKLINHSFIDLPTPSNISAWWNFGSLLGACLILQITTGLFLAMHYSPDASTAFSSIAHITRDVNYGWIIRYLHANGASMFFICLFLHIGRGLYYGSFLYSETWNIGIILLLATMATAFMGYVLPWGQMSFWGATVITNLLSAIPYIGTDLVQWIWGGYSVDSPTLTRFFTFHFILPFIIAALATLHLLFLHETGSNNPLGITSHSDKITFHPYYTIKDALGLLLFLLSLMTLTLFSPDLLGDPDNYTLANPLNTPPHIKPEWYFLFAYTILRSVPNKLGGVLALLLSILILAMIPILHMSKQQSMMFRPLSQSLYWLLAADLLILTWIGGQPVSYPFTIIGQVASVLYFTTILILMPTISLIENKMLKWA
Sequence of mitochondrial complex III (MiaPaCa-2 cells) (P47985 whole entry partner): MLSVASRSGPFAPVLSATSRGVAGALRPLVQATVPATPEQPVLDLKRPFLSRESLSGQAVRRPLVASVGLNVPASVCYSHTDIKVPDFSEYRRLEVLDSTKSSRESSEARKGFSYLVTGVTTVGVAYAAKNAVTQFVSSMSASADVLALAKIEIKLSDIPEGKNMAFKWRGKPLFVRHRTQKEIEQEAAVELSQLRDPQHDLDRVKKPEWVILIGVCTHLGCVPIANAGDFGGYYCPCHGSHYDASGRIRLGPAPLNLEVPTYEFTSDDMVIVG

**Q.** For `O=C1C(OCCOCCOCCOCCOCCOCCOCCOCCOCC[P+](c2ccccc2)(c2ccccc2)c2ccccc2)=C([C@H]2CC[C@H](c3ccc(Cl)cc3)CC2)C(=O)c2ccccc21.[Br-]` [Mito-PEG9-ATO, (26-((3-(trans-4-(4-chlorophenyl)cyclohexyl)-1,4-dioxo-1,4-dihydronaphthalen-2-yl)oxy)-3,6,9,12,15,18,21,24-octaoxahexacosyl)triphenylphosphonium bromide], which IC50 (MiaPaCa-2 cells; Homo sapiens, MIA PaCa-2, read-out: IC50, inhibition of cell proliferation) is on record?
**A.** 160 nM

**Q.** And the “Cell confluence (% of control)” value (MiaPaCa-2 cells; 0.01 µM)?
**A.** 99.63 % of control

**Q.** What about the “Cell confluence (% of control)” value (MiaPaCa-2 cells; 0.03 µM) of the same molecule?
**A.** 99.03 % of control

**Q.** And the “Cell confluence (% of control)” value (MiaPaCa-2 cells; 0.1 µM)?
**A.** 81.02 % of control

**Q.** What about the “Cell confluence (% of control)” value (MiaPaCa-2 cells; 0.15 µM) of the same molecule?
**A.** 60.68 % of control

**Q.** What about the “Cell confluence (% of control)” value (MiaPaCa-2 cells; 0.2 µM) of the same molecule?
**A.** 25.97 % of control

**Q.** And the “Cell confluence (% of control)” value (MiaPaCa-2 cells; 0.25 µM)?
**A.** 14.32 % of control

**Q.** What about the “Cell confluence (% of control)” value (MiaPaCa-2 cells; 0.3 µM) of the same molecule?
**A.** 10.81 % of control

**Q.** And the “Cell confluence (% of control)” value (MiaPaCa-2 cells; 0.4 µM)?
**A.** 7.81 % of control

**Q.** What about the “Cell confluence (% of control)” value (MiaPaCa-2 cells; 0.5 µM) of the same molecule?
**A.** 5.89 % of control

**Q.** What about the “Cell confluence (% of control)” value (MiaPaCa-2 cells; 1 µM) of the same molecule?
**A.** 4.84 % of control

**Q.** What about the “Cell confluence (% of control)” value (MiaPaCa-2 cells; 5 µM) of the same molecule?
**A.** 3.30 % of control

**Q.** What about the “OCR (pmol/min/µg protein)” value ([1]; 0.01 µM, 24 h treatment, intact MiaPaCa-2 cells, baseline OCR, mean, n=4) of the same molecule?
**A.** 13.41 pmol/min/µg protein

**Q.** What about the “OCR (basal, intact cell mitochondrial respiration)” value ([1]; 0.03 µM, 24 h treatment, intact MiaPaCa-2 cells, mean, n=4) of the same molecule?
**A.** 12.24 pmol/min/µg protein

**Q.** And the “OCR (basal, intact cell mitochondrial respiration)” value ([1]; 0.1 µM, 24 h treatment, intact MiaPaCa-2 cells, mean, n=4)?
**A.** 7.60 pmol/min/µg protein

**Q.** What about the “OCR (basal, intact cell mitochondrial respiration)” value ([1]; 0.2 µM, 24 h treatment, intact MiaPaCa-2 cells, mean, n=4) of the same molecule?
**A.** 3.64 pmol/min/µg protein

**Q.** And the “OCR (basal, intact cell mitochondrial respiration)” value ([1]; 0.3 µM, 24 h treatment, intact MiaPaCa-2 cells, mean, n=4)?
**A.** 1.87 pmol/min/µg protein

**Q.** What about the “OCR (basal, intact cell mitochondrial respiration)” value ([1]; 0.4 µM, 24 h treatment, intact MiaPaCa-2 cells, mean, n=4) of the same molecule?
**A.** 1.43 pmol/min/µg protein

**Q.** And the “OCR (basal, intact cell mitochondrial respiration)” value ([1]; 0.5 µM, 24 h treatment, intact MiaPaCa-2 cells, mean, n=4)?
**A.** 1.22 pmol/min/µg protein

**Q.** And the “OCR (basal, intact cell mitochondrial respiration)” value ([1]; 1 µM, 24 h treatment, intact MiaPaCa-2 cells, mean, n=4)?
**A.** 1.18 pmol/min/µg protein

**Q.** What about the “OCR (basal, intact cell mitochondrial respiration)” value ([1]; 3 µM, 24 h treatment, intact MiaPaCa-2 cells, mean, n=4) of the same molecule?
**A.** 0.96 pmol/min/µg protein

**Q.** What about the “OCR (basal, intact cell mitochondrial respiration)” value ([1]; 5 µM, 24 h treatment, intact MiaPaCa-2 cells, mean, n=4) of the same molecule?
**A.** 0.01 pmol/min/µg protein

**Q.** And the IC50 ([1]; Homo sapiens, MIA PaCa-2, 24 h, read-out: IC50, inhibition of basal OCR in intact cells)?
**A.** 110 nM

**Q.** What about the “Complex III activity (OCR, % of control)” value ([2]; 0.003 µM) of the same molecule?
**A.** 101.6 % of control

**Q.** What about the “Complex III activity (OCR, % of control)” value ([2]; 0.01 µM) of the same molecule?
**A.** 95.6 % of control

**Q.** And the “Complex III activity (OCR, % of control)” value ([2]; 0.03 µM)?
**A.** 96.5 % of control

**Q.** What about the “Complex III activity (OCR, % of control)” value ([2]; 0.05 µM) of the same molecule?
**A.** 100.1 % of control

**Q.** What about the “Complex III activity (OCR, % of control)” value ([2]; 0.1 µM) of the same molecule?
**A.** 95.3 % of control

**Q.** And the “Complex III activity (OCR, % of control)” value ([2]; 0.2 µM)?
**A.** 93.6 % of control

**Q.** And the “Complex III activity (OCR, % of control)” value ([2]; 0.3 µM)?
**A.** 92.1 % of control

**Q.** What about the “Complex III activity (OCR, % of control)” value ([2]; 0.4 µM) of the same molecule?
**A.** 72.1 % of control

**Q.** What about the “Complex III activity (OCR, % of control)” value ([2]; 0.5 µM) of the same molecule?
**A.** 48.1 % of control

**Q.** What about the “Complex III activity (OCR, % of control)” value ([2]; 0.75 µM) of the same molecule?
**A.** 16.6 % of control

**Q.** And the “Complex III activity (OCR, % of control)” value ([2]; 1 µM)?
**A.** 4.7 % of control

**Q.** And the IC50 ([2]; MiaPaCa-2 cells, 24 h treatment, antimycin A-inhibitable OCR, read-out: IC50, complex III-induced oxygen consumption (Complex III activity))?
**A.** 500 nM
